This is an account of results in US9428732B2, “Compositions and methods for differentiating pluripotent stem cells into primitive blood cells and uses thereof” (Primorigen Biosciences, Inc., priority 2011, dated 2016).

Assay type in all cases: cell-based, human
Assay [1] deals with ES and iPS cells. The assay is described as follows: Small molecule screen, CFU-GEMM assays of myeloid progenitors. The conditions noted are these: relative to DMSO control; DEAB 10 μM, rapamycin 0.1 μM; FIG. 3D. As to the method:
(§1) The differentiation cultures were trypsinized at the indicated time points and single-cell suspensions were generated following trypsinization. For the Colony Forming Unit (CFU) assays using methyl cellulose cultures, 25% of the cells were plated in 2 ml of MethoCult H4435 (STEMCELL Technologies, Vancouver, BC) in six-well plates. Alternatively, sorted CD45+, CD43+, CD34+, 7AAD-cells were sorted and plated at 500 cells per 2 ml Methocult media. Cells were incubated for 14 days in a humidified incubator at 37° C. with 5% CO2 and evaluated for colonies by bright-field microscopy (Zeiss (Oberkochen, Germany, www.zeiss.com) Axiovert 200 with a Zeiss Axiocam), Cells were resuspended in PBS supplemented with 2% FBS. For the lymphoid myeloid differentiation assays, either CD45+, CD43+, CD34+, 7AAD-hematopoietic progenitors, or CD45+, CD43+, CD34+, CD38−, CD90+, CD45RA− phenotypic HSCs were plated at 20-40 cells per well onto OP9 and OP9delta feeder lines for B-cell and T-cell differentiation, respectively, as previously described (Nozad Charoudeh H, Tang Y, Cheng M, Cilio C M, Jacobsen S E, Sitnicka E., Identification of an NK/T cell-restricted progenitor in adult bone marrow contributing to bone marrow- and thymic-dependent NK cell, Blood, 2010 Jul. 15; 116(2):183-92. NK cell differentiation as well as myeloid cell differentiation was also detected in this differentiation system. […]

Assay [2] deals with iPS-derived hematopoietic progenitors and phenotypic HSCs. The assay is described as follows: Differentiation into lymphocytes on OP9 and OP9delta feeder lines, FACS. The conditions noted are these: cells generated from iPS cells with DEAB at 10 uM; 14 to 21 days. As to the method:
as §1

Assay [3] relates to pluripotent stem cell differentiation cultures. Briefly: Beating cardiomyocyte colonies in differentiation cultures. The conditions noted are these: cultures using DEAB; data not shown. From the text:
Within the mesoderm lineage we then quantified the expression of markers of the paraxial (FOXC1) and lateral plate (FOXF1, hematopoietic and cardiac precursor) mesoderm. […] This is likely the result of anterior lateral plate mesoderm formation (precursors of the heart). We saw a dramatic upregulation of the cardiogenic mesoderm marker NKX2.5 in the DMSO control at this time point (FIG. 6G, Day 12 onward).

Assay [4] deals with hematopoietic progenitor cells differentiated from iPS cells. The assay is described as follows: Colony Forming Unit (CFU) assay in methyl cellulose with DEAB. The following applies: 10 µM DEAB; 14 days MethoCult. As to the method:
as §1

As for `CCN(CC)c1ccc(C=O)cc1` [DEAB, 4-diethylaminobenzaldehyde], in assay [1], the “output of myeloid progenitors (CFU/BFU)” value is reported as “increased”. For the same compound, the “ability of generated HSCs to differentiate into lymphoid cells (B, NK, T)” value in assay [2] is recorded as “capable of differentiating to each type of tested lymphocyte”. Further, the “numbers of beating cardiomyocytes colonies” value in assay [3] was “significantly reduced numbers”. Also, in assay [4], the “levels of all four major CFU assay types (CFU-G, CFU-M, CFU-GEMM, BFU-E)” value is given as “measurable levels” and the “total number of colonies vs cells not differentiated in the presence of DEAB (DMSO control)” value is listed as “more than double”.
